The structures appear in SMILES notation.

Data on 40 molecules can be found in patent US11993604B2, “Substituted pyrazolo[4,3-H]quinazolines as protein kinase inhibitors” (SHENGKE PHARMACEUTICALS (JIANGSU) LTD., priority 2017, dated 2024).

The target of experiment [1] is T1, recombinant CDK4/Cyclin D1 (Homo sapiens, UniProt P11802).
T1 construct: purchased Life Technologies PV4204
In words: Biochemical kinase inhibition test, CDK4/Cyclin D1 (32P-ATP, retinoblastoma protein substrate). As to conditions: three-fold serial dilution from 10 μM; 10 μM ATP; read-out: CDK4/D1 (nM), enzyme inhibitory activity IC50.

The target in a further experiment is CDK6/cyclin D1 (Homo sapiens, UniProt Q00534). In words: Biochemical kinase inhibition test, CDK6/cyclin D1 (similar method). The conditions noted are these: for IC50: three-fold serial dilution from 10 μM, 10 μM ATP, read-out: CDK6/D1 (nM), enzyme inhibitory activity IC50; for selectivity for CDK6/cyclin D1 relative to CDK4/cyclin D1 (enzyme inhibitory activity): CDK6/cyclin D1 versus CDK4/cyclin D1. On the procedure: Potency determination of biochemical kinase inhibition test. Kinase activity test and IC50 determination. Firstly, 10 ng of recombinant CDK4/Cyclin D1 (Life Technologies PV4204) was diluted in kinase buffer (20 mM Tris pH 7.5, 10 mM MgCl2, 0.01% NP-40, 2 mM DTT), and was incubated with inhibitors at the indicated concentration at room temperature for 30 minutes. The kinase reaction was initiated by adding […] (1.5 μM) of recombinant retinoblastoma protein, 5 μM ATP and 10μ Ci γ-32P-ATP. The reaction was incubated at 30° C. for 20 minutes, and was terminated by adding 2× Laemmli sample buffer, heated at 95° C. for three minutes, and the resulting solution was dissolved with 12% acrylamide SDS-PAGE and autoradiographed. A densitometer (Bio-Rad) was used to quantify the corresponding phosphorylated substrate protein bands. The resulting density values were plotted as a function of the log drug concentration using Prism 4 Graphpad software. IC50 values were determined by plotting a non-linear regression curve with a variable slope.
The inhibitory activity of the compounds disclosed herein against CDK6/cyclin D1 was tested by a similar method.
The compounds were tested in a three-fold serial dilution from the starting concentration of 10 μM, over 10-fold of IC50. The control compound, staurosporine, was tested in a four-fold serial dilution from the starting concentration of 20 μM, over 10-fold of IC50. These reactions took place in the presence of 10 μM ATP.

CDK6/cyclin D1, sequence (Q00534 whole entry, species assumed): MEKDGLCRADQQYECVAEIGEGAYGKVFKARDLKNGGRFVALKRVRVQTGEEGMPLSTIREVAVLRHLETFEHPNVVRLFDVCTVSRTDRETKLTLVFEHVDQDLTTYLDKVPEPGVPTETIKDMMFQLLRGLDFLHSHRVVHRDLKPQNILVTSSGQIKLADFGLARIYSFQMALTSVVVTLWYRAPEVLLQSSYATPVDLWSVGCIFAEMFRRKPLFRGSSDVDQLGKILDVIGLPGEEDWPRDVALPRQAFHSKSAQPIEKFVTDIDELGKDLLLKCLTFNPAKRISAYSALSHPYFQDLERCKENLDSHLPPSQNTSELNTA
CDK6/cyclin D1, sequence (P24385 whole entry partner, species assumed): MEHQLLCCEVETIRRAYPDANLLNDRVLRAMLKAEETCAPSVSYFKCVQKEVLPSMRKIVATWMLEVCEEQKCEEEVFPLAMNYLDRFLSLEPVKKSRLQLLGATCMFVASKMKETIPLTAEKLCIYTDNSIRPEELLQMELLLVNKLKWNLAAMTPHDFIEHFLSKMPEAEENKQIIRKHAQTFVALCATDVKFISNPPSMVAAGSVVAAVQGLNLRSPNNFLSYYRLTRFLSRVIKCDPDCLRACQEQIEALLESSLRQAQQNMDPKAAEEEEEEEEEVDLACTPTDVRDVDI
T1 sequence (P11802 whole entry): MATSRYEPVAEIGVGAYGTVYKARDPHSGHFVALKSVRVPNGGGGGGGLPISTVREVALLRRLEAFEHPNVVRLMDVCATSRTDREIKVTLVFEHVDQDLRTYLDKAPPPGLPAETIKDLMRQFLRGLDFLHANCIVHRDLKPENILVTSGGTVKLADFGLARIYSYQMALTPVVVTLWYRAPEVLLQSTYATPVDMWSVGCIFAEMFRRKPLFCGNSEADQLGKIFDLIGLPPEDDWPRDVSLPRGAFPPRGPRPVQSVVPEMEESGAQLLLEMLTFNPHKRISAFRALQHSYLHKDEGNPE
T1 sequence (P24385 whole entry partner): as the sequence (P24385 whole entry partner, species assumed) above

As to `c1cc(Nc2ncc3ccc4cnn(C5CCCC5)c4c3n2)ncc1N1CCOCC1` [Compound I-42], the IC50 (in experiment [1]; at CDK6/cyclin D1) was 1 to 5 nM throughout.
`Cc1nc(Nc2ncc3ccc4cnn(C5CCCC5)c4c3n2)ccc1N1CCOCC1` [Compound I-43]: the IC50 (in experiment [1]; on CDK6/cyclin D1) was 1 to 5 nM throughout.
Turning to `Cc1cc(Nc2ncc3ccc4cnn(C5CCCC5)c4c3n2)ncc1N1CCOCC1` [Compound I-44], the IC50 (in experiment [1]; on CDK6/cyclin D1) was 10 to 20 nM in each case.
With `CCn1ncc2ccc3cnc(Nc4ccc(N5CCNCC5)cn4)nc3c21.Cl` [Compound I-45], the IC50 in experiment [1] fell in the range of 10 to 20 nM. Besides, on CDK6/cyclin D1, the “selectivity for CDK6/cyclin D1 relative to CDK4/cyclin D1 (enzyme inhibitory activity)” value is “about 3 times” and the IC50 was in the range of 5 to 10 nM.
Regarding `CCn1ncc2ccc3cnc(Nc4cc(F)c(N5CCNCC5)cn4)nc3c21.Cl` [Compound I-46], the IC50 in experiment [1] lay in the range of 20 to 50 nM. Moreover, at CDK6/cyclin D1, the “selectivity for CDK6/cyclin D1 relative to CDK4/cyclin D1 (enzyme inhibitory activity)” value is recorded as “about 2 times” and the IC50 was in the range of 10 to 20 nM.
The like results for `CCn1ncc2ccc3cnc(Nc4ccc(N5CCNCC5)c(F)n4)nc3c21.Cl` [Compound I-47] were, in that order, 10 to 20 nM, “about 2 times” and 5 to 10 nM.
Consider `CCN1CCN(c2ccc(Nc3ncc4ccc5cnn(CC)c5c4n3)nc2)CC1` [Compound I-48], for which, in experiment [1], the IC50 was 10 to 20 nM. On CDK6/cyclin D1, the “selectivity for CDK6/cyclin D1 relative to CDK4/cyclin D1 (enzyme inhibitory activity)” value is reported as “about 3 times” and the IC50 fell in the range of 5 to 10 nM.
With `CCN1CCN(c2cnc(Nc3ncc4ccc5cnn(CC)c5c4n3)cc2C)CC1` [Compound I-49], the IC50 lay within 20 to 50 nM in experiment [1] and 10 to 20 nM at CDK6/cyclin D1. Further, on CDK6/cyclin D1, the “selectivity for CDK6/cyclin D1 relative to CDK4/cyclin D1 (enzyme inhibitory activity)” value is “about 2 times”.
For `CCn1ncc2ccc3cnc(Nc4ccc(N5CCOCC5)cn4)nc3c21` [Compound I-50], the values for the IC50 (in experiment [1]; at CDK6/cyclin D1) were 10 to 20 nM and 5 to 10 nM, respectively. The “selectivity for CDK6/cyclin D1 relative to CDK4/cyclin D1 (enzyme inhibitory activity)” value at CDK6/cyclin D1 is on record as “about 3 times”.
In the same order, the values of `CCn1ncc2ccc3cnc(Nc4cc(C)c(N5CCN(C)CC5)cn4)nc3c21` [Compound I-51] are 20 to 50 nM, 10 to 20 nM and “about 2 times”.
With `CCn1ncc2ccc3cnc(Nc4cc(C)c(N5CCOCC5)cn4)nc3c21` [Compound I-52], the IC50 (in experiment [1]; at CDK6/cyclin D1) was 10 to 20 nM each time.
For `Cl.c1cc(Nc2ncc3ccc4cnn(C5CC5)c4c3n2)ncc1N1CCNCC1` [Compound I-53], the IC50 in experiment [1] was in the range of 10 to 20 nM. Moreover, on CDK6/cyclin D1, the “selectivity for CDK6/cyclin D1 relative to CDK4/cyclin D1 (enzyme inhibitory activity)” value is “about 2 times” and the IC50 is 5 to 10 nM.
On to `Cl.Fc1cc(Nc2ncc3ccc4cnn(C5CC5)c4c3n2)ncc1N1CCNCC1` [Compound I-54], for which the IC50 in experiment [1] is 20 to 50 nM. Also, on CDK6/cyclin D1, the “selectivity for CDK6/cyclin D1 relative to CDK4/cyclin D1 (enzyme inhibitory activity)” value is on record as “about 2 times” and the IC50 lay within 10 to 20 nM.
In the case of `Cc1cc(Nc2ncc3ccc4cnn(C5CC5)c4c3n2)ncc1N1CCN(C)CC1` [Compound I-55], the IC50 in experiment [1] was in the range of 20 to 50 nM. In addition, at CDK6/cyclin D1, the “selectivity for CDK6/cyclin D1 relative to CDK4/cyclin D1 (enzyme inhibitory activity)” value is reported as “about 2 times” and the IC50 was 10 to 20 nM.
With `CCN1CCN(c2ccc(Nc3ncc4ccc5cnn(C6CC6)c5c4n3)nc2)CC1` [Compound I-56], the IC50 in experiment [1] lay in the range of 10 to 20 nM. For the same molecule, at CDK6/cyclin D1, the “selectivity for CDK6/cyclin D1 relative to CDK4/cyclin D1 (enzyme inhibitory activity)” value was “about 3 times” and the IC50 was 5 to 10 nM.
For the molecule `CCN1CCN(c2cnc(Nc3ncc4ccc5cnn(C6CC6)c5c4n3)cc2C)CC1` [Compound I-57], the IC50 (in experiment [1]; at CDK6/cyclin D1) was 10 to 20 nM in each case.
Consider `c1cc(Nc2ncc3ccc4cnn(C5CC5)c4c3n2)ncc1N1CCOCC1` [Compound I-58], for which the IC50 in experiment [1] lay in the range of 10 to 20 nM. Besides, on CDK6/cyclin D1, the “selectivity for CDK6/cyclin D1 relative to CDK4/cyclin D1 (enzyme inhibitory activity)” value is recorded as “about 3 times” and the IC50 was 5 to 10 nM.
On to `Cc1cc(Nc2ncc3ccc4cnn(C5CC5)c4c3n2)ncc1N1CCOCC1` [Compound I-59], for which the IC50 (in experiment [1]; on CDK6/cyclin D1) was 10 to 20 nM each time.
For the molecule `CC1CN(c2ccc(Nc3ncc4ccc5cnn(C6CC6)c5c4n3)nc2)CCO1` (stereo not drawn) [Compound I-60], the IC50 (in experiment [1]; at CDK6/cyclin D1) was 10 to 20 nM throughout.
Take `CC(C)n1ncc2c(Br)cc3cnc(Nc4ccc(N5CCNCC5)cn4)nc3c21` [Compound I-61]: the IC50 (in experiment [1]; on CDK6/cyclin D1) was 10 to 20 nM throughout.
As to `CC(C)n1ncc2c(Br)cc3cnc(Nc4cc(F)c(N5CCNCC5)cn4)nc3c21.Cl` [Compound I-62], the IC50 in experiment [1] lay within 20 to 50 nM. Besides, on CDK6/cyclin D1, the “selectivity for CDK6/cyclin D1 relative to CDK4/cyclin D1 (enzyme inhibitory activity)” value is on record as “about 2 times” and the IC50 fell in the range of 10 to 20 nM.
For the molecule `CC(C)n1ncc2c(Br)cc3cnc(Nc4ccc(N5CCN(C)CC5)cn4)nc3c21` [Compound I-63], the IC50 (in experiment [1]; on CDK6/cyclin D1) was 10 to 20 nM each time.
On to `CCN1CCN(c2ccc(Nc3ncc4cc(Br)c5cnn(C(C)C)c5c4n3)nc2)CC1` [Compound I-64], for which the IC50 (in experiment [1]; at CDK6/cyclin D1) was 10 to 20 nM in each case.
As to `CC(C)n1ncc2c(Br)cc3cnc(Nc4ccc(N5CCOCC5)cn4)nc3c21` [Compound I-65], the IC50 (in experiment [1]; on CDK6/cyclin D1) was 10 to 20 nM throughout.
Turning to `Cc1cc2cnc(Nc3ccc(N4CCNCC4)cn3)nc2c2c1cnn2C(C)C.Cl` [Compound I-66], the IC50 in experiment [1] lay in the range of 10 to 20 nM; at CDK6/cyclin D1, 1 to 5 nM. In addition, the “selectivity for CDK6/cyclin D1 relative to CDK4/cyclin D1 (enzyme inhibitory activity)” value on CDK6/cyclin D1 is “about 3 times”.
For the molecule `Cc1cc2cnc(Nc3cc(F)c(N4CCNCC4)cn3)nc2c2c1cnn2C(C)C.Cl` [Compound I-67], the IC50 in experiment [1] was in the range of 20 to 50 nM. In addition, on CDK6/cyclin D1, the “selectivity for CDK6/cyclin D1 relative to CDK4/cyclin D1 (enzyme inhibitory activity)” value is recorded as “about 2 times” and the IC50 is 10 to 20 nM.
As to `Cc1cc2cnc(Nc3ccc(N4CCN(C)CC4)cn3)nc2c2c1cnn2C(C)C` [Compound I-68], the IC50 in experiment [1] fell in the range of 10 to 20 nM; at CDK6/cyclin D1, 1 to 5 nM.
The like results for `CCN1CCN(c2ccc(Nc3ncc4cc(C)c5cnn(C(C)C)c5c4n3)nc2)CC1` [Compound I-69] were, in that order, 10 to 20 nM and 1 to 5 nM.
Take `Cc1cc2cnc(Nc3ccc(N4CCOCC4)cn3)nc2c2c1cnn2C(C)C` [Compound I-70]: the IC50 (in experiment [1]; on CDK6/cyclin D1) was 10 to 20 nM each time.
With `CC(C)n1ncc2c(C#N)cc3cnc(Nc4ccc(N5CCNCC5)cn4)nc3c21.Cl` [Compound I-71], the IC50 in experiment [1] is 10 to 20 nM. On CDK6/cyclin D1, the “selectivity for CDK6/cyclin D1 relative to CDK4/cyclin D1 (enzyme inhibitory activity)” value is recorded as “about 3 times” and the IC50 lay in the range of 1 to 5 nM.
The like results for `CC(C)n1ncc2c(C#N)cc3cnc(Nc4cc(F)c(N5CCNCC5)cn4)nc3c21.Cl` [Compound I-72] were, in that order, 20 to 50 nM, “about 2 times” and 10 to 20 nM.
In the same order, the values of `CCN1CCN(c2ccc(Nc3ncc4cc(C#N)c5cnn(C(C)C)c5c4n3)nc2)CC1` [Compound I-73] are 10 to 20 nM, “about 3 times” and 1 to 5 nM.
The like results for `CC(C)n1ncc2c(C#N)cc3cnc(Nc4ccc(N5CCOCC5)cn4)nc3c21` [Compound I-74] were, in that order, 10 to 20 nM, “about 3 times” and 1 to 5 nM.
In the case of `CC(=O)c1cc2cnc(Nc3ccc(N4CCNCC4)cn3)nc2c2c1cnn2C(C)C` [Compound I-75], the IC50 in experiment [1] is 1 to 5 nM; at CDK6/cyclin D1 it was less than 1 nM.
For `CC(=O)c1cc2cnc(Nc3cc(F)c(N4CCNCC4)cn3)nc2c2c1cnn2C(C)C.Cl` [Compound I-76], the IC50 in experiment [1] lay in the range of 10 to 20 nM; on CDK6/cyclin D1, 5 to 10 nM. Further, the “selectivity for CDK6/cyclin D1 relative to CDK4/cyclin D1 (enzyme inhibitory activity)” value on CDK6/cyclin D1 was “about 2 times”.
Turning to `CC(=O)c1cc2cnc(Nc3ccc(N4CCN(C)CC4)cn3)nc2c2c1cnn2C(C)C` [Compound I-77], the IC50 in experiment [1] is 5 to 10 nM; on CDK6/cyclin D1, less than 1 nM.
As to `CCN1CCN(c2ccc(Nc3ncc4cc(C(C)=O)c5cnn(C(C)C)c5c4n3)nc2)CC1` [Compound I-78], the IC50 in experiment [1] was 1 to 5 nM; on CDK6/cyclin D1, less than 1 nM.
The like results for `CC(=O)c1cc2cnc(Nc3ccc(N4CCOCC4)cn3)nc2c2c1cnn2C(C)C` [Compound I-79] were, in that order, 5 to 10 nM and less than 1 nM.
Turning to `COc1cc(OC)cc(-c2cc3cnc(Nc4ccc(N5CCNCC5)cn4)nc3c3c2cnn3C(C)C)c1.Cl` [Compound I-80], in experiment [1], the IC50 was 5 to 10 nM. At CDK6/cyclin D1, the “selectivity for CDK6/cyclin D1 relative to CDK4/cyclin D1 (enzyme inhibitory activity)” value is “about 3 times” and the IC50 lay in the range of 1 to 5 nM.
The like results for `CCN1CCN(c2ccc(Nc3ncc4cc(-c5cc(OC)cc(OC)c5)c5cnn(C(C)C)c5c4n3)nc2)CC1` [Compound I-81] were, in that order, 5 to 10 nM, “about 3 times” and 1 to 5 nM.
